Experimental findings from patent US10123904B2, “Preservative removal from eye drops” (University of Florida Research Foundation, Inc., priority 2014, dated 2018) are described below.

Where a name gives a salt, the structure may show the parent alone. Read-outs that look alike come from different tables or passages of the source. Marks after values point to notes of the source that are not given here.

Data set [1] in a line: Partition coefficient of drugs and BAK in macroporous pHEMA gel. The class given is physicochemical. As to conditions: for Partition coefficient in macroporous pHEMA gel: 250 mg gel soaked in 12 mL drug or BAK solution in PBS, 15 days, mean ± SD, n = 3; for Partition coefficient smaller than that of BAK: macroporous pHEMA gel. On the procedure:
As indicated above, the absorption percentage of hydrophilic drug is small, whereas a significant amount of hydrophobic drug is uptake by the macroporous pHEMA gel. The high affinity of hydrophobic drug to the gel can be determined by measuring the partition coefficient of the drug in the gel. To measure the partition coefficient, a piece of macroporous pHEMA gel of 250 mg was soaked in 12 mL of drug or BAK solution. After 15 days of soaking, the concentration of the drug or BAK solution was measured by using UV-Vis spectrophotometry. The drug or BAK concentration after soaking indicated the amount of drug or BAK in reference to the initial concentration is that absorbed into the gel. The partition coefficient of timolol and dorzolamide in macroporous pHEMA gel is roughly 15 times smaller than that of BAK, which is excellent separation efficiency. In contrast, the partition coefficients of latanoprost and BAK are pretty high and the separation efficiency of the gel for this mixture is poor.

Data set [2] is described as follows: BAK/drug removal by macroporous pHEMA gel plug packed in syringe, 10 consecutive passes. The class given is physicochemical. As to conditions: for Drug adsorption percentage: first pass through the 10th pass, macroporous pHEMA gel; for Percentage removed/absorbed after passing through plug: 2.5 mL through 5 mm macroporous pHEMA gel, 1 cm syringe. The method, then:
The four drugs were dissolved in PBS and mixed with BAK individually. The macroporous pHEMA hydrogel prepared as above, was used as the BAK removal filter and packed into the syringe, as described above. The experimental setup is that of FIG. 3. […] The solution that passed through the filter plug was collected and the concentration of drug/BAK was determined by measuring the UV-Vis spectra. The measured UV spectrum was a linear combination of the testing drug and BAK and thus, the individual concentration of the drug and BAK could be determined by applying a least square fit method as described in Kim et al. Int. J.

Data set [3] is described as follows: BAK/drug removal by crushed macroporous pHEMA particles packed in syringe, passes separated by 24 hours. The class given is physicochemical. The method, then:
Macroporous pHEMA hydrogel as prepared above was dried in the oven of 80° C. and crushed into particles and the particles packed into the syringe. Two pieces of filter papers were placed at the bottom of the syringe to prevent the packing particles from leaking out. Particles facilitate packing of a hydrogel into the neck of the eye drop bottle where packing is amenable to high-throughput industrial scale loading of gel filters. […] The process was timed using a stopwatch from the moment of placing the weight to the last drop entered the beaker. The weight of the collected solution in the beaker was measured to calculate the flow rate through the pHEMA particles. […] The UV spectrum of the collected solution was measured and the individual concentration of the drug and BAK were determined by a least square fit method as described in Kim et al., Int. J. […] After each measurement, the bottom outlet of the syringe was sealed with parafilm to prevent dehydration of the packed pHEMA particles in the manner equivalent to sealing the eye drop bottle with the cap after use.

Data set [4] can be described thus: Timolol/BAK separation by pHEMA particles with SR454HP cross-linker in eye drop bottle prototype. The class given is physicochemical. The source says:
(§1) More rigid and larger size particles create a larger void space for fluid to flow and improved hydraulic permeability. […] This would be undesirable because the plug is drug at the time of the instillation of the first drop but then could be partially or fully hydrated for subsequent instillations, depending on whether the plug retains the fluid in the interim time between successive instillations. […] During the UV curing, the mixture was continuously stirred by a 35×6 mm magnetic stirring bar at 70 rpm. In addition, the petri dish was covered to avoid water evaporation and oxygenation. After polymerization, the pHEMA gel were separated from the solution by vacuum filtration method and washed with a large quantity of DI water to remove the unreacted monomers and other impurities. The pHEMA gel was then dried in an oven of 80° C. and crushed into particles in a mortar. Selectivity of the separation of BAK from timolol was measured. […] A constant pressure drop was applied across the packed particles to maintain a constant flow rate through the plug. […] The UV spectrum of the outlet solution was measured and the concentrations of the drug and BAK were determined by the least square fit method described in Kim et al., Int. J. […] The tip of the prototype bottle was sealed with parafilm. […] The step was repeated 10 times over a total of 10 days.

Data set [5] is described as follows: Partition coefficient in pHEMA particles prepared using SR9035 as cross-linker. The class given is physicochemical. The note with it: 100 mg particles soaked in 3.5 mL solution, 9 days. The method, then: The partition coefficients of timolol, CMC and BAK in pHEMA particles prepared using SR9035 as cross-linker was measured. pHEMA particles (100 mg) were soaked in 3.5 mL of timolol, CMC and BAK solution, which concentration was 0.08 mg/mL, 0.5% and 2.4 mg/mL, respectively. After 9 days of soaking, the concentration of the drug or BAK solution was measured by using UV-Vis spectrophotometry. The drug or BAK concentration after soaking indicated the amount of drug or BAK that absorbed into the gel relative to the initial concentration. The partition coefficient of timolol and CMC in pHEMA particles is much smaller than that of BAK, and should have excellent separation efficiency.

A short description of data set [6]: Timolol/BAK separation by pHEMA particles with SR9035 cross-linker in eye drop bottle prototype. The class given is physicochemical.
Excerpt: as §1

Data set [7] is described as follows: Timolol/BAK separation by heat-initiated pHEMA particles in eye drop bottle prototype. The class given is physicochemical. On the procedure: FIG. 24 indicates the percentages of BAK and timolol that were absorbed after the mixture in solution was passed through the heat-initiated pHEMA particles, shown in FIG. 18. […] The hydraulic permeability of the packing particles is 0.0459 Darcy which was measured as described, above. […] The size of the particles prepared by UV or heat-initiated polymerization is similar. […] The drug/BAK solution was injected into the prototype bottle with a syringe. […] The UV spectrum of the outlet solution was measured and the individual concentration of the drug and BAK was determined by a least square fit method as described in Kim et al., Int. J.

Data set [8] in a line: Timolol/BAK separation by UV-initiated pHEMA particles (EGDMA) in eye drop bottle prototype. The class given is physicochemical. The source says:
The sodium chloride promoted phase separation of the mixture. Small globules containing HEMA monomer and EGDMA was formed by continuously stirring the system at high rpm. […] In addition, the petri dish was covered to avoid water evaporation and oxygenation. After the polymerization, the pHEMA particles were separated from the solution by vacuum filtration method and washed with a large quantity of DI water to remove the unreacted monomers and other impurities. The particles were then dried in an oven of 80° C. […] The synthesized particles were packed in the prototype bottle and tested for their selectivity of separation of BAK from timolol. […] The drug/BAK solution was injected into the prototype bottle with a syringe. A clip was applied to the bottle to impose a constant pressure drop. […] The UV spectrum of the outlet solution was measured and the concentrations of the drug and BAK were determined by the least square fit method described in Kim et al., Int. J. Pharm., 2008, Apr. 2; 353(1-2):205-22. Five samples were successively removed through the plug.

Data set [9] in a line: Binding of BAK and drugs to pHEMA matrix (general statement). The class given is physicochemical.
The nature of data set [10]: Latanoprost/BAK separation by crushed macroporous pHEMA particles in eye drop bottle prototype. The class given is physicochemical. The note with it: all 10 runs over 10 days; 1.5 mL, 8 mm plug, particles pre-equilibrated with latanoprost. The method, then: The crushed macroporous pHEMA particles were prepared as described above. The particles were packed in the eye drop bottle prototype (FIG. 19) to test its selectivity of separation of BAK from latanoprost. The concentration of latanoprost and BAK prepared for the testing were both 0.03 mg/mL with PBS as the solvent. The drug/BAK solution was injected into the prototype bottle with a syringe. A clip was clipping on the bottle to create a constant pressure drop across the packing pHEMA particles of 8 mm in length. A volume of 1.5 mL of the drug/BAK solution was passed through the filter by squeezing the bottle. The UV spectrum of the outlet solution was measured and the individual concentration of the drug and BAK was determined by a least square fit method as described in Kim et al., Int. J. Pharm., 2008, Apr. 2; 353(1-2):205-22. The tip of the prototype bottle was sealed with parafilm. After 24 hours, another 1.5 mL drug/BAK solution was removed through the same filter and again to measure the concentrations of the drug and BAK. The step was repeated 10 times over a total of 10 days.

For data set [11] the following is noted: 3 consecutive runs; hydrogel treated with 1% MAA.
Procedure: The hydrogel was packed into the syringe as BAK removal filter and its separation efficiency of BAK from dexamethasone was tested in the same manner as the copolymer.
Data set [12] can be described thus: Partition coefficient of BAK in pHEMA particles prepared by heat-initiated polymerization. The class given is physicochemical.

Regarding `C[C@@H]1C[C@H]2[C@@H]3CCC4=CC(=O)C=C[C@]4(C)[C@@]3(F)[C@@H](O)C[C@]2(C)[C@@]1(O)C(=O)CO` [Dexamethasone, dexamethasone], in data set [1], the “Partition coefficient in macroporous pHEMA gel” value came out at 33.53 ± 1.31.
In the case of `CCN[C@H]1C[C@H](C)S(=O)(=O)c2sc(S(N)(=O)=O)cc21` [Dorzolamide, dorzolamide hydrochloride], in data set [1], the “Partition coefficient in macroporous pHEMA gel” value was 7.59 ± 0.56 and the “Partition coefficient smaller than that of BAK” value is listed as “roughly 15 times”. Moreover, the Drug adsorption percentage entry in data set [2] was “about 5%”.
Turning to `CC(C)OC(=O)CCC/C=C\C[C@@H]1[C@@H](CC[C@@H](O)CCc2ccccc2)[C@H](O)C[C@@H]1O` [Latanoprost, latanoprost], in data set [1], the “Partition coefficient in macroporous pHEMA gel” value was found to be 90.18 ± 1.36. Besides, the “Portion of drug absorbed” value in [3] (particles pre-equilibrated with the corresponding drug solution) was “only a very small portion”. The “Percentage removed/absorbed after passing through plug” value in data set [2] (10th pass) turned out to be 30%; in data set [2] (first run), 90%.
For the compound `CC(C)(C)NC[C@H](O)COc1nsnc1N1CCOCC1` [Timolol, timolol maleate], the “Partition coefficient in macroporous pHEMA gel” value in data set [1] was 6.49 ± 0.37. For the same compound, in [1], the “Partition coefficient smaller than that of BAK” value is given as “roughly 15 times”. Besides, the Percentage removed result in data set [4] (1st run) was “About 18%”; in data set [6] (1st run), “About 25%”; in data set [7] (1st run), “About 17%”; in data set [7] (10th run) it was “about 3%”; in data set [8] (each of the 5 runs), “about 1.5%”. Further, the Amount removed result in data set [4] (10th run) and in [6] (after the 5th run) was “negligible” in each case. The “Partition coefficient in pHEMA particles prepared by using SR9035 as cross-linker” value in data set [5] is recorded as 5.59 ± 0.13^a. The Drug adsorption percentage entry in data set [2] was “about 5%”.
With Benzalkonium chloride [BAK], the Percentage removed entry in data set [4] (after the 5th run) is reported as “about 90%”; in data set [4] (first 3-5th runs, 1.5 mL daily, 1.8 cm plug), ~100%; in data set [6] (10th run), “about 95%”; in data set [6] (first 6th runs, 1.5 mL daily, 1.8 cm plug), ~100%; in data set [7] (each of 10 passes carried out successively, 1.5 mL, 8 mm plug) it was ~100%; in [8] (5th run, 1.5 mL, 8 mm plug) it was 30%. In [8] (first pass, 1.5 mL, 8 mm plug), the Percentage removed result is listed as “Roughly 50%”. Moreover, the “Adsorption time on pHEMA” value in data set [9] (compared with transit time through plug) is < 3 s. The “Partition coefficient into the pHEMA matrix” value in data set [9] (depending on BAK concentration and structure of the pHEMA matrix) is 100-500. The “Partition coefficient in pHEMA particles prepared by using SR9035 as cross-linker” value in data set [5] was ~300. Besides, the “Percentage of BAK removed” value in [10] is ~100%; in data set [11] it was ~100%; in data set [3] (all 10 passes, each separated by 24 hours, regardless of the drug in the solution) it was ~100%. Also, the “Partition coefficient of BAK in pHEMA particles prepared by heat-initiated polymerization” value in data set [12] is reported as 200-250. For the same compound, the “Percentage removed/absorbed after passing through plug” value in data set [2] (10th pass) is reported as 70-80%; in data set [2] (first run) it was 100%.
